ChEMBL document CHEMBL4270512, “Harnessing pyrrolidine iminosugars into dimeric structures for the rapid discovery of divalent glycosidase inhibitors” (Eur J Med Chem, 2018)
pIC50, pKi: −log10 of the molar value. Calls of active or inactive are those of the source. The rule behind the calls is not given here.

How the values were obtained:
Prunus dulcis = assay: Inhibition of almond beta-glucosidase at 0.1 mM using p-nitrophenyl glycopyranoside as substrate preincubated for 5 mins followed by substrate addition and measured after 20 mins by visible absorption spectroscopic analysis
[1] = Inhibition of bovine kidney alpha-fucosidase using p-nitrophenyl glycopyranoside as substrate preincubated for 5 mins followed by substrate addition and measured after 20 mins by visible absorption spectroscopic analysis; design: species or system Bos taurus
Bos taurus [2] = organism: Bos taurus; assay: Inhibition of bovine kidney alpha-fucosidase at 5 uM using p-nitrophenyl glycopyranoside as substrate preincubated for 5 mins followed by substrate addition and measured after 20 mins by visible absorption spectroscopic analysis relative to control
Saccharomyces cerevisiae = assay: Inhibition of Saccharomyces cerevisiae alpha-glucosidase at 0.1 mM using p-nitrophenyl glycopyranoside as substrate preincubated for 5 mins followed by substrate addition and measured after 20 mins by visible absorption spectroscopic analysis
[3] = biological target: T1, Beta-galactosidase (Bos taurus) (UniProt Q58D55); assay: Inhibition of bovine liver beta-galactosidase at 0.1 mM using p-nitrophenyl glycopyranoside as substrate preincubated for 5 mins followed by substrate addition and measured after 20 mins by visible absorption spectroscopic analysis
T1 sequence (whole entry): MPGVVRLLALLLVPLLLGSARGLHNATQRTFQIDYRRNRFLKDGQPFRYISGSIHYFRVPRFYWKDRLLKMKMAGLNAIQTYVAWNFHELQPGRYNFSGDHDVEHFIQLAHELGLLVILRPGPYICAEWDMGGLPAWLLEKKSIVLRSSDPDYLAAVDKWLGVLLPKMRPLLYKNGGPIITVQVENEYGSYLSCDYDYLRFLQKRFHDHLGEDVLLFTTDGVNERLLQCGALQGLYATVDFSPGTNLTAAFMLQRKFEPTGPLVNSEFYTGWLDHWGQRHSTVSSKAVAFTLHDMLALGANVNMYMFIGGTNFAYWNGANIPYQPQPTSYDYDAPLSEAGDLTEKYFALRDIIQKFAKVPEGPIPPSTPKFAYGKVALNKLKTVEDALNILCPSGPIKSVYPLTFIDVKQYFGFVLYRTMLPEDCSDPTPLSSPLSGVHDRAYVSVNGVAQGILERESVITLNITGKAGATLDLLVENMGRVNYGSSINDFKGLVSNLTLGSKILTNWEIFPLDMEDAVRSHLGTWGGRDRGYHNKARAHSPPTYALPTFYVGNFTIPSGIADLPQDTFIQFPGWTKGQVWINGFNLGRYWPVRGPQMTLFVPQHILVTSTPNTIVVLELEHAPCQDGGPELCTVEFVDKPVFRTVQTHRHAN

[4] = Uncompetitive inhibition of bovine kidney alpha-fucosidase using p-nitrophenyl glycopyranoside as substrate preincubated for 5 mins followed by substrate addition and measured after 20 mins by Cornish-Bowden plot analysis; design: species or system Bos taurus
Bos taurus [5] = organism: Bos taurus; assay: Inhibition of bovine kidney alpha-fucosidase at 0.120 uM using p-nitrophenyl glycopyranoside as substrate preincubated for 5 mins followed by substrate addition and measured after 20 mins by visible absorption spectroscopic analysis relative to control
Oryza sativa = assay: Inhibition of rice beta-glucosidase at 0.1 mM using p-nitrophenyl glycopyranoside as substrate preincubated for 5 mins followed by substrate addition and measured after 20 mins by visible absorption spectroscopic analysis
[6] = Competitive inhibition of bovine kidney alpha-fucosidase using p-nitrophenyl glycopyranoside as substrate preincubated for 5 mins followed by substrate addition and measured after 20 mins by Dixon plot analysis; design: species or system Bos taurus
[7] = Uncompetitive inhibition of human alpha-fucosidase using p-nitrophenyl glycopyranoside as substrate preincubated for 5 mins followed by substrate addition and measured after 20 mins by Cornish-Bowden plot analysis
Aspergillus niger = assay: Inhibition of Aspergillus niger amyloglucosidase at 0.1 mM using p-nitrophenyl glycopyranoside as substrate preincubated for 5 mins followed by substrate addition and measured after 20 mins by visible absorption spectroscopic analysis
Bos taurus [8] = organism: Bos taurus; assay: Inhibition of bovine kidney alpha-fucosidase at 0.120 uM using p-nitrophenyl glycopyranoside as substrate preincubated for 5 mins followed by substrate addition and measured after 20 mins by visible absorption spectroscopic analysis
[9] = biological target: Alpha-galactosidase (Coffea arabica) (UniProt Q42656); assay: Inhibition of coffee beans alpha-galactosidase at 0.1 mM using p-nitrophenyl glycopyranoside as substrate preincubated for 5 mins followed by substrate addition and measured after 20 mins by visible absorption spectroscopic analysis
Chain of Alpha-galactosidase (Coffea arabica) (Q42656 16-378 limits assumed): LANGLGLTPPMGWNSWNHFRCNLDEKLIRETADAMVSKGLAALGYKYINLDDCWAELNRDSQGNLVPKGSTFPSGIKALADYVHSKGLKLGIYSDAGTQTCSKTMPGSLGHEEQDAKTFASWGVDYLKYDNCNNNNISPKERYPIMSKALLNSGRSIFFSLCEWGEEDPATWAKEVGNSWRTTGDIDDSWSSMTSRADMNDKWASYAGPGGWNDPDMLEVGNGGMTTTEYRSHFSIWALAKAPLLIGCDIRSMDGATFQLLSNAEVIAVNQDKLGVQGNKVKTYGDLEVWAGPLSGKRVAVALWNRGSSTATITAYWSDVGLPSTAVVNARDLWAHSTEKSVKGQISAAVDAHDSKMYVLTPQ

Cornu aspersum = assay: Inhibition of snail beta-mannosidase at 0.1 mM using p-nitrophenyl glycopyranoside as substrate preincubated for 5 mins followed by substrate addition and measured after 20 mins by visible absorption spectroscopic analysis
Canavalia ensiformis = assay: Inhibition of jack beans beta-N-acetylglucosaminidase at 0.1 mM using p-nitrophenyl glycopyranoside as substrate preincubated for 5 mins followed by substrate addition and measured after 20 mins by visible absorption spectroscopic analysis
[10] = Inhibition of human alpha-fucosidase using p-nitrophenyl glycopyranoside as substrate preincubated for 5 mins followed by substrate addition and measured after 20 mins by visible absorption spectroscopic analysis
[11] = biological target: T2, Alpha-mannosidase (Canavalia ensiformis) (UniProt C0HJB3); assay: Inhibition of jack beans alpha-mannosidase at 0.1 mM using p-nitrophenyl glycopyranoside as substrate preincubated for 5 mins followed by substrate addition and measured after 20 mins by visible absorption spectroscopic analysis
T2 sequence (whole entry): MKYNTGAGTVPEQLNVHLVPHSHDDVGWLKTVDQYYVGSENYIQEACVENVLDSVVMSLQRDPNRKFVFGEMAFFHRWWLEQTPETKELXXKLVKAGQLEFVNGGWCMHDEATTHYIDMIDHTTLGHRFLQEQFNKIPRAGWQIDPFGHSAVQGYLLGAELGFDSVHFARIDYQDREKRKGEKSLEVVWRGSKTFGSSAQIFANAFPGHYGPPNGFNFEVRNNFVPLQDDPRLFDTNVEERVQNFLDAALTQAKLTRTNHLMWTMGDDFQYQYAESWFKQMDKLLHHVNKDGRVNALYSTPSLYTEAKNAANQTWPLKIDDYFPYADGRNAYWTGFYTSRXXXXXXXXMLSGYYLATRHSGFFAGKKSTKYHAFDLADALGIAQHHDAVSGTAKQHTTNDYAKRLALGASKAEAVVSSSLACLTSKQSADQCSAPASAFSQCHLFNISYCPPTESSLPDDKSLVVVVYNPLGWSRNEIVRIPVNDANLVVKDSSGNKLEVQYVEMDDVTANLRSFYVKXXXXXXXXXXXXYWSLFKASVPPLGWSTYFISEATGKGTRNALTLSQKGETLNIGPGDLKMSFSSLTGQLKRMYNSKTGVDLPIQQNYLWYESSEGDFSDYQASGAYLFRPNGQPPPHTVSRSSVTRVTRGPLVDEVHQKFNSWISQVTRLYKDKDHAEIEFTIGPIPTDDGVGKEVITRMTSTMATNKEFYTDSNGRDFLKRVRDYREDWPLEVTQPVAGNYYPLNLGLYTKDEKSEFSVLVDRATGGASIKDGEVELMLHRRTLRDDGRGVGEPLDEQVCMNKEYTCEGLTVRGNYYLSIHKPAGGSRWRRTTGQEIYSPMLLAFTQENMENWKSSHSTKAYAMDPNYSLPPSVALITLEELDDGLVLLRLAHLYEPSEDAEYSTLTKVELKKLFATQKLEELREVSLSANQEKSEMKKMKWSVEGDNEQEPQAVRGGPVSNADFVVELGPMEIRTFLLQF

[12] = Competitive inhibition of human alpha-fucosidase using p-nitrophenyl glycopyranoside as substrate preincubated for 5 mins followed by substrate addition and measured after 20 mins by Dixon plot analysis
Beta-galactosidase [13] = biological target: T3, Beta-galactosidase (Bos taurus, UniProt Q58D55); assay: Competitive inhibition of bovine liver beta-galactosidase using p-nitrophenyl glycopyranoside as substrate preincubated for 5 mins followed by substrate addition and measured after 20 mins by Lineweaver-Burk plot analysis
T3 sequence (Q58D55 whole entry): T1 sequence (whole entry)

Beta-galactosidase [14] = biological target: T3, Beta-galactosidase; assay: Inhibition of bovine liver beta-galactosidase using p-nitrophenyl glycopyranoside as substrate preincubated for 5 mins followed by substrate addition and measured after 20 mins by visible absorption spectroscopic analysis
[15] = Inhibition of bovine kidney alpha-fucosidase at 0.1 mM using p-nitrophenyl glycopyranoside as substrate preincubated for 5 mins followed by substrate addition and measured after 20 mins by visible absorption spectroscopic analysis relative to control; design: species or system Bos taurus
Homo sapiens = organism: Homo sapiens; assay: Inhibition of human alpha-fucosidase at 0.1 mM using p-nitrophenyl glycopyranoside as substrate preincubated for 5 mins followed by substrate addition and measured after 20 mins by visible absorption spectroscopic analysis

inhibition (Prunus dulcis)	inhibition (Saccharomyces cerevisiae)	inhibition (Oryza sativa)	inhibition (Aspergillus niger)	inhibition [9]	inhibition (Cornu aspersum)	inhibition (Canavalia ensiformis)	inhibition [11]	SMILES	also measured
inactive	inactive	inactive	inactive	inactive	inactive	inactive	inactive	C[C@@H]1N[C@@H](c2cn(-c3ccc(S(=O)(=O)c4ccc(-n5cc([C@@H]6N[C@@H](C)[C@@H](O)[C@H]6O)nn5)cc4)cc3)nn2)[C@H](O)[C@@H]1O	pIC50 [1]: 9.32; inhibition (Bos taurus [2]): 91%; inhibition [3]: inactive; pKi [4]: 9.28; inhibition (Bos taurus [5]): 96%; pKi [6]: 9.82; pKi [7]: 6.82; inhibition (Bos taurus [8]): Active; pIC50 [10]: 6.68; pKi [12]: 7.22
inactive	inactive	inactive	inactive	inactive	inactive	inactive	inactive	CCCCCCn1cc(CNC(=O)c2cc([C@H]3NC[C@@H](O)[C@H]3O)oc2C)nn1	pKi (Beta-galactosidase [13]): 4.24; pIC50 (Beta-galactosidase [14]): 4.03; pIC50 [15]: 4.43; inhibition (Homo sapiens): inactive
